Test results from patent US20250282770A1, “BIOLUMINESCENT PROBES TO TRACK STEM CELLS IN VIVO” (THE BOARD OF TRUSTEES OF THE UNIVERSITY OF ILLINOIS, priority 2024, published 2025).

System: 4T1-Luc cells
Assay: MTT cytotoxicity assay
Format: cell-based, murine
Conditions: up to the highest concentration tested (100 μM); 2 hours
Experimental: MTT Cytotoxicity Assay. 48-well plates were seeded with 100,000 cells per well ([…]) and incubated at 37° C. with 5% CO2 for 16 hours (˜75% confluent). Media was removed and fresh RPMI 1640 media with 10% FBS containing 100, 50 25, 12.5, 6.25, 3.13, 1.56, or 0 μM AlDeLuc (1% DMSO final v/v) was added. The media was removed after two hours and replaced with 500 μL of 18:1 mixture of FBS-free RPMI 1640 and (3-(4,5-dimethylthiazol-2-yl)-2,5-diphenyltetrazolium bromide (MT, 5 mg/mL stock in PBS). The cells were incubated for one hour at the same conditions before the media was removed. DMSO (500 μL/well) was added, and the absorbance was read at 555 nm on a microplate reader. Viability was calculated by the absorbance relative to the vehicle control. Values are reported as the mean±standard deviation (n=3).

Q: CCN(CC)c1ccc2nc(C3=N[C@@H](C(OC)OC)CS3)sc2c1 [AlDeLuc, (S)-2-(4-(dimethoxymethyl)-4,5-dihydrothiazol-2-yl)-N,N-diethylbenzo[d]thiazol-6-amine] was tested. Which “cell viability (MTT)” value did it give?
A: The value was “nontoxic”.
